Experimental data published in PMC3133966 (Nature neuroscience, 2011).

Tests used:
[1] = target: T1, KCNQ5 (Kv7.5); presynaptic KCNQ5 homomers (Rattus norvegicus, UniProt F1LY25); test: whole-cell patch clamp of rat calyx of Held, outward K+ current; assay type: cell-based; details: read-out: % inhibition at 100 μM
[2] = target: T1, KCNQ5 (Kv7.5); presynaptic KCNQ5 homomers; test: as above; assay type: cell-based; details: read-out: % of control current remaining at 10 μM

T1 sequence (F1LY25 1-951): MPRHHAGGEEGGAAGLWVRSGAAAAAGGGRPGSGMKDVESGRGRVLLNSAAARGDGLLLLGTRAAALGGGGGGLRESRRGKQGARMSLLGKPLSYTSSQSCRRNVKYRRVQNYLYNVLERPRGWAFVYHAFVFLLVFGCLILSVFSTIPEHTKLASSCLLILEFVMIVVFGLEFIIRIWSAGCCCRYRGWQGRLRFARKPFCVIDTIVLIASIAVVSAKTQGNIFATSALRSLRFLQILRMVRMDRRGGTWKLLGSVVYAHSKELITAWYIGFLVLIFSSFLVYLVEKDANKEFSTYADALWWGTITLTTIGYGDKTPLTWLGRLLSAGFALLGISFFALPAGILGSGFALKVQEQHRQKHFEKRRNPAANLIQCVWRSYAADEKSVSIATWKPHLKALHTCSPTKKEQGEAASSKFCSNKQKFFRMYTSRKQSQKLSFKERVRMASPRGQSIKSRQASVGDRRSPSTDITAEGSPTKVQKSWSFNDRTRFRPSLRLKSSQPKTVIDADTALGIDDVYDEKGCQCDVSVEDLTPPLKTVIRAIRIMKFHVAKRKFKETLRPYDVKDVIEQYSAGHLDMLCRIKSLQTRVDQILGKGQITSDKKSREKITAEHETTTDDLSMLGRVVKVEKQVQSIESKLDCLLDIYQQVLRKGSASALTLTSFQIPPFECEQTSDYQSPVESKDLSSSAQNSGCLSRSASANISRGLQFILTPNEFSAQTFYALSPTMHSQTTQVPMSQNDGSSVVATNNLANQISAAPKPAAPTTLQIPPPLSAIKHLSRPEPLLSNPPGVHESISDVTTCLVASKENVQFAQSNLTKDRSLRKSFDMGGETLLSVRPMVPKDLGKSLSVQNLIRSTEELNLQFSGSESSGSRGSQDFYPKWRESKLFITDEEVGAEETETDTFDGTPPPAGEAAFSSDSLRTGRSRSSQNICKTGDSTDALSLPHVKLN

Row | SMILES | inhibition at 100 µM [1] | remaining activity at 10 µM [2]
1 | O=C(O)Cc1ccccc1Nc1c(Cl)cccc1Cl [diclofenac] | 53 ± 4% | 
2 | O=C1N(c2ccccc2)c2ccccc2C1(Cc1ccncc1)Cc1ccncc1 [linopirdine] |  | 17 ± 4%
